Legend:
expert panel members [1] = test: Sucrose Equivalent Value (SEV) of pH 3.2 buffered sucrose solution, taste panel; assay type: in vivo; conditions: for SEV (%): 500 ppm of one potentiator in pH 3.2 buffered 5% sucrose solution; for effect on SEV of sucrose solutions, forms of 2,4-DHB: 500 ppm, pH 3.2 buffered solutions with 0%, 3%, 5%, 7% and 9% sucrose; for maximum sweetness attainable (SEV): pH 3.2 buffered 5% sucrose solution, dose response curve 0 to 1000 ppm; for SEV of solution containing 500 ppm 2,4-DHB and 500 ppm of a second sweetener potentiator: label = second potentiator, 5% sucrose solution
Experimental: (§1) One method of measuring the perceived sweetness of a solution is to match it with a stock sucrose solution of known concentration. In the present experiments, the compound of interest is added at a predetermined concentration to a pH 3.2 buffered solution containing 5% sucrose. A number of expert panel members then taste the solution and compare it to a battery of stock sucrose solutions ranging from 3% to 15% at increments of 1%. Each panel member decides which sucrose solution is equisweet with the solution containing the compound of interest. The mean value is then reported as the SEV. Results are reported to 1 decimal place.
In accordance with this methodology, 3-HB was added to a pH 3.2 buffered solution containing 5% sucrose to produce solutions containing from 0 to 1000 ppm 3-HB in 100 ppm increments. […] From FIG. 1 it is apparent that as the dosage of 3-HB increases so does the sweetness of the resultant solution. However the effect is non-linear with each incremental addition having a diminishing effect. The maximum sweetness attainable would appear to be about 7.9% SEV (based on a 5% sucrose solution).
The same methodology as described in Example 6 was repeated with 2,4-DHB in place of 3-HB, to produce the dose response curve for 2,4-DHB (FIG. 2). […] The maximum attainable sweetness would appear to be about 6.7% SEV (based on a 5% sucrose solution).
500 ppm of a sweetener potentiator was added to a pH 3.2 buffered solution containing 5% sucrose and the SEV of the resultant solution determined.
500 ppm of the sweetener potentiator then was added to a 5% sucrose solution containing 500 ppm 3-HB to produce a series of solutions. […] The use of 500 ppm of 3-HB alone results in an SEV of 6.9% whereas in all cases but two (2,4-DHB and 3,4-DHB) the addition of a second sweetener potentiator results in a little change or even a decrease in SEV. This is highly surprising considering that all of the potentiators are shown to have SEVs greater than 5%.
The methodology was repeated to produce a series of solutions containing 500 ppm 2,4-DHB and 500 ppm of a second sweetener potentiator.
500 ppm of 3-HB, 500 ppm of 2,4-DHB and 500 ppm of 3,4-dihydroxybenzoic acid (3,4-DHB) were added to a pH 3.2 buffered solution containing 5% sucrose and the SEV determined. The results are shown in FIG. 7 together with other combinations of 3-HB, 2,4-DHB and 3,4-DHB for comparison. The solution containing the combination of 3-HB and 2,4-DHB (hatched) has a much higher SEV (8.7%) than the combination of either 3,4-DHB and 3-HB (7.6%) or the combination of 3,4-DHB and 2,4-DHB (6.8%). The three-way combination of the embodiment (hatched) is better still with an SEV of 9.8%.
Buffered solutions of pH 3.2 were prepared containing 0%, 3%, 5%, 7% and 9% sucrose. 500 ppm of 2,4-DHB acid, 500 ppm of the sodium salt of 2,4-DHB and 500 ppm of the potassium salt of 2,4-DHB were added individually to each of the sucrose solutions. The SEV for each of the solutions was then determined.
500 ppm of 3-aminobenzoic acid and 500 ppm of 4-aminobenzoic acid were individually added to separate pH 3.2 buffered solutions containing 5% sucrose and the SEVs of the resultant solutions were determined. The SEV of 3-aminobenzoic acid was about 7%, i.e., increased the sweetness intensity of 5% sucrose to about 7%. The SEV of 4-aminobenzoic acid was about 5.5-6%, i.e., increased the sweetness intensity of 5% sucrose to about 5.5-6%.

panel member = test: Sucrose reduction method versus 10% sucrose control, taste panel; assay type: in vivo; conditions: 1000 ppm used individually; control pH 3.2 10% sucrose
Experimental: An alternative method of measuring perceived sweetness is to determine how much sucrose can be replaced through the use of the compound of interest without any Perceived loss of sweetness. In the present experiments the control was a pH 3.2 buffered solution containing 10% sucrose. The compound of interest is added at a predetermined concentration to a number of sucrose solutions containing from 5% to 10% sucrose at increments of 0.5%. Each panel member tastes each of the solutions, compares it to the control sample and decides which solutions are equisweet. For example, if the 8% sucrose solution containing the compound of interest is equisweet with the control, then the sucrose reduction achieved by the compound of interest is 20%.
A series of sucrose solutions were prepared containing 3-HB and 2,4-DHB at a combined concentration of 1000 ppm. Each solution was evaluated using the sucrose reduction method described above to determine how much sucrose could be replaced without noticeable loss of sweetness.
A series of sucrose solutions were prepared containing equal quantities of 3-HB and 2,4-DHB, at a combined concentration of 200, 400, 600, 800 and 1000 ppm. Each solution was evaluated using the sucrose reduction method described in Example 8 above to determine how much sucrose could be replaced without noticeable loss of sweetness.

[2] = cited from earlier work
expert panel members [3] = test: SEV of non-sucrose sweetener solutions (SEV about 5%) after addition of potentiators; assay type: in vivo; conditions: 500 ppm 3-HB alone versus with 500 ppm 2,4-DHB; pH 3.2
Experimental: as §1
The SEV of each sweetener solution was then evaluated after the addition 500 ppm of 3-HB, the addition of 500 ppm of 2,4-DHB and the addition of both 500 ppm 3-HB and 2,4-DHB.

Compound: O=C(O)c1ccc(O)c(O)c1O [2,3,4-trihydroxybenzoic acid (2,3,4-THB), 2,3,4-trihydroxybenzoic acid]
- SEV (%) (expert panel members [1]): 5.4%

Compound: O=C(O)c1cccc(O)c1O [2,3-dihydroxybenzoic acid (2,3-DHB), 2,3-dihydroxybenzoic acid]
- SEV (%) (expert panel members [1]): 6.3%

Compound: O=C(O)c1c(O)cc(O)cc1O [2,4,6-trihydroxybenzoic acid (2,4,6-THB), 2,4,6-trihydroxybenzoic acid]
- SEV (%) (expert panel members [1]): 5.4%

Compound: O=C(O)c1ccc(O)cc1O [2,4-DHB, 2,4-dihydroxybenzoic acid]
- SEV (expert panel members [1]; 400 ppm in pH 3.2 buffered 5% sucrose solution): 6.5%
- SEV (%) (expert panel members [1]): 6.5%
- effect on SEV of sucrose solutions, forms of 2,4-DHB (expert panel members [1]): enhances the sweetness of the sucrose solution in every case
- SEV (expert panel members [1]; 1000 ppm in pH 3.2 buffered 5% sucrose solution): 6.7%
- maximum sweetness attainable (SEV) (expert panel members [1]): about 6.7 % SEV
- sucrose reduction (panel member): 15%
- effect on the sweetness intensity of both sucralose and aspartame ([2]; FIGS. 1 and 2 and Tables 1 and 2 of U.S. Pat. No. 6,461,658): slightly inhibitory effect
- length of time during which sucralose sweetness is perceived ([2]; U.S. Pat. No. 6,461,658): significantly reducing
- effect on sweetness of a 5% sucrose solution ([2]; addition of 0.2% 2,4-DHB, Canadian Patent No. 1208966): increase in sweetness

Compound: O=C(O)c1cc(O)ccc1O [2,5-dihydroxybenzoic acid (2,5-DHB), 2,5-dihydroxybenzoic acid]
- SEV (%) (expert panel members [1]): 5.3%

Compound: O=C(O)c1c(O)cccc1O [2,6-dihydroxybenzoic acid (2,6-DHB), 2,6-dihydroxybenzoic acid]
- SEV (%) (expert panel members [1]): 5.3%

Compound: O=C(O)c1ccccc1O [2-hydroxybenzoic acid (2-HB), 2-hydroxybenzoic acid]
- SEV (%) (expert panel members [1]): 5.6%
- SEV of solution containing 500 ppm 2,4-DHB and 500 ppm of a second sweetener potentiator (expert panel members [1]): 6.3%

Compound: O=C(O)c1cc(O)c(O)c(O)c1 [3,4,5-tryhydroxybenzoic acid (3,4,5-THB), 3,4,5-tryhydroxybenzoic acid]
- SEV (%) (expert panel members [1]): 5.1%

Compound: O=C(O)c1ccc(O)c(O)c1 [3,4-dihydroxybenzoic acid (3,4-DHB), 3,4-dihydroxybenzoic acid]
- SEV (%) (expert panel members [1]): 6.4%

Compound: O=C(O)c1cc(O)cc(O)c1 [3,5-dihydroxybenzoic acid (3,5-DHB), 3,5-dihydroxybenzoic acid]
- SEV (%) (expert panel members [1]): 5.3%

Compound: Nc1cccc(C(=O)O)c1 [3-aminobenzoic acid]
- SEV (%) (expert panel members [1]): about 7%

Compound: Nc1ccc(C(=O)O)cc1 [4-aminobenzoic acid]
- SEV (%) (expert panel members [1]): 5.5-6%

Compound: O=C(O)c1ccc(O)cc1 [4-hydroxybenzoic acid (4-HB), 4-hydroxybenzoic acid]
- SEV (%) (expert panel members [1]): 5.2%
- SEV of solution containing 500 ppm 2,4-DHB and 500 ppm of a second sweetener potentiator (expert panel members [1]): 6.2%

Compound: O=C(O)c1cccc(O)c1 [Example 3-HB, 3-hydroxybenzoic acid]
- SEV (%) (expert panel members [1]): 6.9%
- maximum sweetness attainable (SEV) (expert panel members [1]): about 7.9 % SEV
- sucrose reduction (panel member): 25%
- effect on sweetness of saccharin solution (expert panel members [3]): enhances the sweetness to a greater degree alone than in combination with 2,4-DHB

Compound: O=C([O-])c1ccc(O)cc1O.[K+] [potassium salt of 2,4-DHB]
- effect on SEV of sucrose solutions, forms of 2,4-DHB (expert panel members [1]): enhances the sweetness of the sucrose solution in every case

Compound: O=C([O-])c1ccc(O)cc1O.[Na+] [sodium salt of 2,4-DHB]
- effect on SEV of sucrose solutions, forms of 2,4-DHB (expert panel members [1]): enhances the sweetness of the sucrose solution in every case

Source: US20110052776A1, “CHOCOLATE COMPOSITIONS HAVING IMPROVED FLAVOUR CHARACTERISTICS” (priority 2007, published 2011)
